Consider 1 compound from patent US20250268844A1, “ANTICANCER AGENTS BASED ON CYCLOPENTENONES” (UNIVERSITY OF CRETE, priority 2022, published 2025).

The test system of one series is BRO melanoma cells. Put plainly: MTT conversion assay, BRO. The conditions noted are these: Homo sapiens, 48 hrs treatment. In kind it is cell-based, human. How it is done:
(§1) In particular, Enone-1 and Enone-2 were tested for cytotoxic activity in 17 cell lines representing a broad spectrum of human tumors. They include human colorectal carcinoma (Caco2, RKO, HCT15, HT29), liver (HepG2), lung (A549), ovarian carcinoma (A2780, 2780CP, AGE60, SKOV3), anaplastic large cell lymphoma (Mac1 and Mac2a), breast carcinoma (MDA-MB-231), cervical (HeLa), bladder cancer (VM-CUB-1), melanoma (BRO), and multiple myeloma (MR20).
(§2) Each assay was performed in triplicate and repeated in 2-3 independent experiments. Specifically, to measure cell survival, 20 μl of 10 mg/ml MTT (3-([…])-2,5-diphenyl tetrazolium bromide; Sigma) was added to each well and the plates were incubated at 37° C. in 5% CO2 for 3 hours. The supernatant was removed and the formed crystals were dissolved in 200 μl dimethyl sulphoxide. The plates were then analysed at 450 nm on a plate reader. Growth inhibition (reduction in survival) was calculated by expressing the differences in optical densities between treatment wells and control wells as a percentage of the control.
(In general: Tetrazolium assays rely on reduction of a dye to a coloured formazan, in cell work by metabolically active cells.)

The subject of series [1] is mdm2, p21, bax and bbc3/puma. As to the kind of experiment: RT-qPCR of p53 target genes in A2780 cells. The conditions noted are these: 2.5 μM. It counts as cell-based, human. As to the method: FIG. 8: Enones induce the p53 pathway. […] Cell lysates were analyzed for p53 and GAPDH (loading control). (B) A2780 cells were cultured in the presence or absence of 2.5 μM for the indicated time points before being analyzed for p53 and GAPDH levels. (C) Treatment of A2780 cells with 2.5 μM Enone-2 results in the up-regulation of p53-regulated genes (*p<0.05; **p<0.01; ***p<0.001, n=4). (D) Induction of p53 accumulation in AGE60 ovarian carcinoma cells following 6 or 14 hr exposure to 2.5 μM Enone-2. (E) Enone-1 induces the p53 pathway in A2780 cells which were cultured in the presence of 2.5 μM of the drug and analyzed as in (B). (F) Treatment of A2780 cells with 2.5 μM Enone-2 results in the up-regulation of p53-regulated genes (*p<0.05; **p<0.01; ***p<0.001, n=3).
The effects of Enone-2 on p53 and p53-dependent transcription of cell cycle and cell death-associated genes was confirmed by immunoblotting for p53 and by reverse transcription qPCR (RT-qPCR) for mdm2, p21, bax and bbc3/puma, established p53 target genes.
(In general: Real-time PCR tracks product formation cycle by cycle.)

The test system of series [2] is 2780CP ovarian carcinoma cells. As to the kind of experiment: Combination with bortezomib in 2780CP cells. In kind it is cell-based, human. The conditions noted are these: 2 hours bortezomib pre-treatment, then 48 hour co-culture with Enone-2. How it is done: The arrows in the microphotographs of (A) depict 2780CP cells with apoptotic morphology following treatment with 5 nM bortezomib in combination with 0.5 μM Enone-2.
Proteasome inhibitors have been reported to enhance platinum-induced toxicity in cis-platin-resistant ovarian cancer cells. […] To address this hypothesis, 2780CP ovarian carcinoma cells were pre-treated for 2 hours with different concentrations of the proteasomal inhibitor bortezomib, a drug in clinical use, followed by a 48 hour co-culture with Enone-2.

Another series has as its system CDT1. As to the kind of experiment: CDT1 RNA levels (qPCR) in A2780 cells. In kind it is cell-based, human. The conditions noted are these: 2.5 μM for 6 or 14 hours. As to the method: FIG. 4. Effects of Enone-2 on cell cycle and on the expression levels of replication licensing factors (RLF). (A) Representative cell cycle profiles showing progressive accumulation of A2780 ovarian carcinoma cells in the G2/M phase of the cell cycle following 24 hour treatment with 2.5 or 5 μM Enone-2. Quantification of results is shown in the form of pie charts on the right. PI: propidium iodide. (B) & (C) A2780 cells were treated with 2.5 μM Enone-2 for 6 or 14 hours and analyzed for CDC6 protein levels by immunoblot (B), or RNA levels by reverse transcription qPCR (C). The RNA levels of the RLF CDT1 were also measured by qPCR (C). ***P<0.001; **P<0.01.
Replication licensing factors (RLF) such as CDC6, MCM2-MCM7, ORC and CDT1 form origins of DNA replication in the G1 phase of the cell cycle and initiate DNA replication during the S phase. CDC6 is also involved in S-M checkpoint mechanisms that ensure that the entire genome is replicated just once per cell division. Cancer cells frequently display deregulated expression of RLFs; for example, CDC6 is over-expressed in colorectal and ovarian carcinoma and is associated with poor patient prognosis. […] Because of these characteristics, RLFs are considered as novel targets for anti-cancer therapy. […]

Series [3] relates to HCT15 colorectal carcinoma cells. As to the kind of experiment: MTT conversion assay, HCT15. It counts as cell-based, human. The conditions noted are these: Homo sapiens, HCT-15, HCT15, colon, 48 hrs treatment. How it is done: as §1, §2
In series [4] the test system is A2780 ovarian carcinoma cells. As to the kind of experiment: Clonogenic assay. It counts as cell-based, human. The conditions noted are these: 12 hours treatment with 2.5 μM or 5.0 μM, colonies on day 10, compared with cis-platin. An excerpt:
The long-term effects of Enone-2 on tumor cell survival were examined by using clonogenic assays which assess the ability of single cells to survive and reproduce to form colonies. […] The colonies formed on day 10 were visualized by staining with crystal violet following cell fixation and enumerated.

In series [5] the test system is MDA-MB-231 breast carcinoma cells. Put plainly: MTT conversion assay, MDA-MB-231. It counts as cell-based, human. The conditions noted are these: Homo sapiens, 48 hrs treatment. As to the method: as §1, §2
Series [6] deals with AGE60 ovarian carcinoma cells. As to the kind of experiment: MTT conversion assay, AGE60. The conditions noted are these: Homo sapiens, Ovarian carcinoma cell, 48 hrs treatment. In kind it is cell-based, human. As to the method: as §1, §2
A further series has as its system HepG2 liver cells. Put plainly: MTT conversion assay, HepG2. In kind it is cell-based, human. The conditions noted are these: Homo sapiens, 48 hrs treatment. How it is done:
as §1, §2

Series [7] concerns Caco-2 colorectal carcinoma cells. As to the kind of experiment: MTT conversion assay, Caco-2. It counts as cell-based. The conditions noted are these: Homo sapiens, Caco-2, colon, 48 hrs treatment. As to the method: as §1, §2
A further series has as its system γH2Ax. As to the kind of experiment: γH2Ax immunoblot (DNA damage response marker) in A2780 cells. It counts as cell-based, human. The conditions noted are these: 6 hrs, increasing concentrations, relative to untreated controls. As to the method:
FIG. 9. […] A2780 cells were cultured for 6 hrs in the presence of drug concentrations as indicated. (B) Effects of siRNA targeting RPL11 (siRPL11), Chek2 (siChek2) or the unrelated luciferase (Luci) genes on RPL11 and Chek2 mRNA levels quantified by RT-PCR. (C) Effects of siRpl11 on Enone-2 and oxaliplatin (OXA)-induced p53 activation. Expression levels relative to GAPDH are indicated; untreated controls (CNT) were given the arbitrary value of 1. […] Expression levels relative to GAPDH are indicated; untreated controls (CNT) were given the arbitrary value of 1.
In general terms: In western blotting, separated proteins are transferred to a membrane and probed.

The structures appear in SMILES notation. “Also recorded” adds a separate entry of the source.

As usually defined, the IC50 is the midpoint of a concentration-inhibition curve. A high value points to weaker potency in that assay. Turning to `C[C@@]1(O)C=CC(=O)[C@H]1c1ccc(F)c2ccccc12` (stereo in doubt) [Enone-2, 5-(4-fluoronaphthalen-1-yl)-4-hydroxy-4-methylcyclopent-2-en-1-one], the IC50 in the series with BRO melanoma cells is 3.8 µM; in series [3], 900 nM; in series [5] it was 2500 nM; in series [6], 1200 nM; with HepG2 liver cells, 3000 nM; in series [7] it was 1800 nM. In addition, the “mdm2, p21, bax and bbc3/puma mRNA (p53-dependent gene expression)” value in series [1] is “time-dependent upregulation”. For the same compound, the “cytotoxicity of combination with bortezomib compared to each agent alone” value in series [2] was “augmentation of cytotoxicity compared to each agent alone; also recorded: higher cytotoxicity in relation to each agent alone”. Besides, in the series on CDT1, the “CDT1 RNA levels” value is “reduce CDT1 RNA levels”. The “number of colonies formed” value in series [4] is on record as “lower than the equivalent dose of cis-platin”. For the same compound, the “γH2Ax induction (marker of DDR)” value in the series on γH2Ax is reported as “no effect relative to untreated controls”.
